According to patent US5869500A, “Pyridone compounds useful in treating Alzheimer's disease” (Hoffmann-La Roche Inc., priority 1996, dated 1999):
Counter-ions that a name gives are not always drawn.

Assays:
[1] = test system: Aβ production in HEK cells over-expressing Wild type β-APP; test: Aβ production inhibition, sandwich-ELISA in HEK cells which over-express Wild type β-APP (SE-WT); format: cell-based, human; conditions: Homo sapiens; for IC50: HEK293, based on the respective plateau of maximum inhibition; for Emax: HEK293, maximum inhibition plateau, read-out: SE-WT max. inhibition %
How it was run: (§1)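 HEK cells expressing recombinant human wild-type or mutated (SFAD) β-APP treated with compound for 24 to 48 hours at 37° C, 10% CO2. IC50 based on plateau of maximum inhibition.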

[2] = test system: Aβ production in HEK cells over-expressing mutated β-APP (SFAD); test: Aβ production inhibition, sandwich-ELISA in HEK cells, over-expressed mutated β-APP (SE-SFAD); format: cell-based, human; conditions: for IC50: based on the respective plateau of maximum inhibition; for Emax: read-out: SE-SFAD max. inhibition %
How it was run: as §1

[3] = Homo sapiens, HEK293, HEK cells
[4] = Homo sapiens, HEK293, HEK cells, maximum inhibition plateau

Row | Compound | IC50 [1] | Emax [1] | IC50 [2, 3] | Emax [2, 4] | IC50 ([2]; HEK cells) | SE-SFAD max. inhibition % ([2]; HEK cells, maximum inhibition plateau)
1 | O=C(OCCN1CCCC1=O)c1cc(-c2ccccc2)c(=O)n2ccc3ccsc3c12 [Compound 29, 2-(2-Oxo-pyrrolidin-1-yl)-ethyl 7-oxo-8-phenyl-7H-thieno[2,3-a]-quinolizine-10-carboxylate] | 4.1 µM | 80% | 3 µM | 40% | – | –
2 | O=C(Nc1nccs1)c1cc(-c2ccccc2)c(=O)n2ccc3ccsc3c12 [Compound 49, 7-Oxo-8-phenyl-7H-thieno[2,3-a]quinolizine-10-carboxylic acid thiazol-2-yl-amide] | 0.5 µM | 50% | 0.7 µM | 50% | – | –
3 | COc1cccc(-c2cc(C(=O)NCc3ccccc3)c3c4sccc4ccn3c2=O)c1 [Compound 116, 8-(3-Methoxy-phenyl)-7-oxo-7H-thieno[2,3-a]quinolizine-10-carboxylic acid benzyl-amide] | 1 µM | 60 to 80% | 0.8 µM | 100% | – | –
4 | CCN(CCOC)C(=O)c1cc(-c2ccccc2)c(=O)n2ccc3ccsc3c12 [Compound 20, 7-Oxo-8-phenyl-7H-thieno[2,3-a]quinolizine-10-carboxylic acid (2-methoxy-ethyl)-ethyl-amide] | 9 µM | 70% | 15 µM | 30% | – | –
5 | COC[C@@H]1CCCN1C(=O)c1cc(-c2ccccc2)c(=O)n2ccc3ccsc3c12 [Compound 34, 10-(2-(S)-Methoxymethyl-pyrrolidine-1-carbonyl)-8-phenyl-thieno-[2,3-a]-quinolizin-7-one] | 4 µM | 60% | 9 µM | 50% | – | –
6 | COC(=O)c1cc(-c2ccccc2OC)c(=O)n2ccc3ccsc3c12 [Compound 129, Methyl 8-(2-methoxy-phenyl)-7-oxo-7H-thieno[2,3-a]quinolizine-10-carboxylate] | 1.5 µM | 85% | – | – | 2.8 µM | 75%
7 | COCCN(C(=O)c1cc(-c2ccccc2)c(=O)n2ccc3ccsc3c12)c1ccccc1 [Compound 23, 7-Oxo-8-phenyl-7H-thieno[2,3-a]quinolizine-10-carboxylic acid (2-methoxy-ethyl)phenyl-amide] | 3.4 µM | 100% | 6.7 µM | 100% | – | –
8 | COC(=O)c1cc(-c2ccccc2)c(=O)n2c1-c1[nH]c3ccccc3c1CC2 [Compound 63, Methyl 4-oxo-3-phenyl-4,6,7,12-tetrahydro-indolo[2,3-a]quinolizine-1-carboxylate] | 0.6 µM | 45% | 1 µM | 65% | – | –
9 | COC1CCN(C(=O)c2cc(-c3ccccc3)c(=O)n3ccc4ccsc4c23)CC1 [Compound 13, 10-(4-Methoxy-piperidine-1-carbonyl)-8-phenyl-thieno[2,3-a]-quinolizin-7-one] | 4 µM | 80% | 5 µM | 30% | – | –
10 | CCOC(=O)CN1CCN(C(=O)c2cc(-c3ccccc3)c(=O)n3ccc4ccsc4c23)CC1 [Compound 16, Ethyl [4-(7-oxo-8-phenyl-7H-thieno[2,3-a]quinolizine-10-carbonyl)-piperazin-1-yl]-acetate methanesulphonate] | 6 µM | 70% | 3 µM | 30% | – | –
11 | COCCCN(C)C(=O)c1cc(-c2ccccc2)c(=O)n2ccc3ccsc3c12 [Compound 18, 7-Oxo-8-phenyl-7H-thieno[2,3-a]quinolizine-10-carboxylic acid (3-methoxy-propyl)-methyl-amide] | 7 µM | 40% | 4 µM | 30% | – | –
12 | CN(C)CC=CCOC(=O)c1cc(-c2ccccc2)c(=O)n2ccc3ccsc3c12 [Compound 59, 4-Dimethylamino-but-2-enyl 7-oxo-8-phenyl-7H-thieno[2,3-a]-quinolizine-10-carboxylate methanesulphonate] | 7 µM | 100% | 5 µM | 100% | – | –
13 | O=C(OCCN1CCOCC1)c1cc(-c2ccccc2)c(=O)n2ccc3ccsc3c12 [Compound 32, 2-Morpholin-4-yl-ethyl 7-oxo-8-phenyl-7H-thieno[2,3-a]quinolizine-10-carboxylate hydrochloride] | 3 µM | 100% | 30 µM | 100% | – | –
14 | O=C1CC[C@H](COC(=O)c2cc(-c3ccccc3)c(=O)n3ccc4ccsc4c23)N1 [Compound 3, 5-Oxo-pyrrolidin-2-(R)-yl-methyl 7-oxo-8-phenyl-7H-thieno[2,3-a]-quinolizine-10-carboxylate] | 1 µM | 60% | 9.5 µM | 30% | – | –
15 | O=C(OCCN1CCOC1=O)c1cc(-c2ccccc2)c(=O)n2ccc3ccsc3c12 [Compound 5, 2-(2-Oxo-oxazolidin-3-yl)-ethyl 7-oxo-8-phenyl-7H-thieno[2,3-a]-quinolizine-10-carboxylate] | 1.2 µM | 60% | 1 µM | 25% | – | –
16 | O=C(c1cc(-c2ccc(O)cc2)c(=O)n2ccc3ccsc3c12)N1CCC[C@@H]1CO [Compound 44, 10-(2-(R)-Hydroxymethyl-pyrrolidine-1-carbonyl)-8-(4-hydroxyphenyl)-thieno[2,3-a]quinolizin-7-one] | 5 µM | 50% | 6 µM | 50% | – | –
17 | O=C(OCc1ccccn1)c1cc(-c2ccccc2)c(=O)n2ccc3ccsc3c12 [Compound 6, Pyridin-2-yl-methyl 7-oxo-8-phenyl-7H-thieno[2,3-a]quinolizine-10-carboxylate] | 0.6 µM | 75% | 3 µM | 50% | – | –
18 | COC[C@H]1CCCN1C(=O)c1cc(-c2ccccc2)c(=O)n2ccc3ccsc3c12 [Compound 35, 10-(2-(R)-Methoxymethyl-pyrrolidine-1-carbonyl)-8-phenyl-thieno-[2,3-a]quinolizin-7-one] | 3 µM | 65% | 6 µM | 50% | – | –
19 | CCN(CCOC)C(=O)c1cc(-c2ccccc2)c(=O)n2ccc3ccc(Cl)cc3c12 [Compound 42, 10-Chloro-4-oxo-3-phenyl-4H-pyrido[2,1-a]isoquinoline-1-carboxylic acid ethyl-(2-methoxy-ethyl)-amide] | 0.9 µM | 100% | 3 µM | 100% | – | –
